Earlier results as cited in US20170121368A1, “NOVEL COMPOUNDS COMPRISING A BOMBESIN DERIVATIVE, A PROCESS FOR THE PREPARATION THEREOF AND A NUCLEAR MOLECULAR IMAGING AGENT COMPRISING THE SAME” (priority 2015, published 2017).
No end group written: not given here.

System: human prostate cancer model
Details: 68Ga label, PET, human prostate cancer model in laboratory mice

**Q.** With “GRP: Gastrin-releasing peptide labeled with 68Ga, literature PET study (VPLPAGGGTVLTKMYPRGNHWAVGHLM-NH2; ends and bridges not checked; also: 68Ga radiolabel; UniProt P07492 24-50, looked up)” as the substance, how does the uptake rate read?
**A.** 9.5 % ID/g
